For data set [1] the following is noted: pure oily state; cited from earlier work.
For data set [2] the following is noted: cited from earlier work.
Another data set deals with laboratory rats. Kind of data set: Efficacy for general anesthesia in rats (i.v. tail vein), with mortality. In kind it is in vivo, female CD laboratory rats. To be noted: 20-21 mg/kg. How it is done:
Diprivan® (Diprivan® 1%, Injection propofol, 10 mg/ml, Emulsion for I.V. Administration, Stuart Pharmaceuticals) was purchased. It is described by the manufacturer as a sterile, nonpyrogenic emulsion containing 10 mg/mL propofol, 100 mg/ml soybean oil, 12 mg/mL lecithin in an aqueous vehicle. It was maintained at room temperature as described by the manufacturer. Samples were taken using aseptic technique.
Lecithin-coated propofol microdroplets containing 6.8% propofol and Diprivan® were injected into the tail veins of 150 gram female CD laboratory rats (Charles River Laboratories, Wilmington, Mass.) restrained in a Decapicone® (Braintree Scientific, Braintree, Mass.). The volumes of 6.8% (w/v) microdroplet propofol injected were 10, 20, 30 or 50 μL. The injections were accomplished in 2-3 seconds. Volumes of 1% Diprivan® injections were 100, 200, 300 or 500 μL. The injections were accomplished in 5-15 seconds. The animals were observed during the injections, and the time required for loss of consciousness ("time to unconsciousness") was recorded. Then the animals were removed from the Decapicone® and placed on their sides and were tested for startle response to a loud clap. […] The time to regain startle response ("time to startle response") was recorded. The time to recover the righting response, indicated by spontaneous attempt to stand, was also measured. […]

The values below come from US5637625A, “Propofol microdroplet formulations” (Research Triangle Pharmaceuticals Ltd., priority 1996, dated 1997).

In the case of `CC(C)c1cccc(C(C)C)c1O` [Propofol, 2,6-diisopropylphenol], the Irritancy entry in data set [1] is “irritant”. Besides, the Water solubility entry in data set [2] is “water-insoluble”. Besides, the “Mortality (in words)” value in the data set with laboratory rats is “significant mortality”.
